The values that follow come from US10479795B2 (Incyte Corporation, priority 2016, dated 2019).

Each structure is given as a SMILES string. Structures can show the parent of a compound that is named as a salt. Where two headings read alike, the source gives them in different places.

Assay [1] has as its system Phosphorylated Ribosomal Protein S6 (RPS6). Description: THP-1 RPS6 ELISA Assay. It is filed as cell-based, Human. Conditions: THP-1 cells, read-out: PI3Kγ_THP1_RPS6_ELISA IC50. In a few lines:
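Serum-starved THP-1 cells were preincubated with a concentration range of compound for 2 h at 37 °C, then stimulated with 10 nM MCP-1 for 15 min. Phospho-RPS6 in lysates was quantified by ELISA at 450 nm. IC50 came from percent inhibition versus log inhibitor concentration.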
A general note: An ELISA detects its analyte on a solid surface through an enzyme-linked reagent.

The target of assay [2] is PI3Kγ (p110γ) Recombinant Human Protein (Homo sapiens (Human), UniProt P48736). Description: PI3K-γ Scintillation Proximity Assay. In kind it is biochemical. Conditions: read-out: PI3Kγ IC50. The method in brief:
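Recombinant human p110γ assayed at room temperature in 20 mM MOPS pH 6.7, 10 mM MgCl2, 5 mM DTT, 0.03% CHAPS, 2% DMSO, with 20 μM PIP2 and 2 μM ATP plus [γ-33P]ATP. Product captured on WGA SPA beads overnight and counted; IC50 fitted from % of solvent-control activity versus log inhibitor concentration.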
In general terms: In a scintillation proximity assay essentially only radioactivity close to the scintillant gives light.

Assay [3] deals with PI3Kδ (p110δ/p85α) Recombinant Human Protein (Homo sapiens (Human), UniProt O00329). Description: PI3Kδ Scintillation Proximity Assay. It is filed as biochemical. In a few lines:
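Kinase reaction run at room temperature in 20 mM MOPS pH 6.7, 10 mM MgCl2, 5 mM DTT, 0.03% CHAPS with 20 μM PIP2, 2 μM ATP plus [γ-33P]ATP, 3.4 nM enzyme, 2% DMSO; 120 min. Quenched with WGA SPA beads/EDTA, counted by scintillation; IC50 from % solvent-control activity vs log concentration.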

Sequence of PI3Kγ (p110γ) Recombinant Human Protein (P48736 whole entry): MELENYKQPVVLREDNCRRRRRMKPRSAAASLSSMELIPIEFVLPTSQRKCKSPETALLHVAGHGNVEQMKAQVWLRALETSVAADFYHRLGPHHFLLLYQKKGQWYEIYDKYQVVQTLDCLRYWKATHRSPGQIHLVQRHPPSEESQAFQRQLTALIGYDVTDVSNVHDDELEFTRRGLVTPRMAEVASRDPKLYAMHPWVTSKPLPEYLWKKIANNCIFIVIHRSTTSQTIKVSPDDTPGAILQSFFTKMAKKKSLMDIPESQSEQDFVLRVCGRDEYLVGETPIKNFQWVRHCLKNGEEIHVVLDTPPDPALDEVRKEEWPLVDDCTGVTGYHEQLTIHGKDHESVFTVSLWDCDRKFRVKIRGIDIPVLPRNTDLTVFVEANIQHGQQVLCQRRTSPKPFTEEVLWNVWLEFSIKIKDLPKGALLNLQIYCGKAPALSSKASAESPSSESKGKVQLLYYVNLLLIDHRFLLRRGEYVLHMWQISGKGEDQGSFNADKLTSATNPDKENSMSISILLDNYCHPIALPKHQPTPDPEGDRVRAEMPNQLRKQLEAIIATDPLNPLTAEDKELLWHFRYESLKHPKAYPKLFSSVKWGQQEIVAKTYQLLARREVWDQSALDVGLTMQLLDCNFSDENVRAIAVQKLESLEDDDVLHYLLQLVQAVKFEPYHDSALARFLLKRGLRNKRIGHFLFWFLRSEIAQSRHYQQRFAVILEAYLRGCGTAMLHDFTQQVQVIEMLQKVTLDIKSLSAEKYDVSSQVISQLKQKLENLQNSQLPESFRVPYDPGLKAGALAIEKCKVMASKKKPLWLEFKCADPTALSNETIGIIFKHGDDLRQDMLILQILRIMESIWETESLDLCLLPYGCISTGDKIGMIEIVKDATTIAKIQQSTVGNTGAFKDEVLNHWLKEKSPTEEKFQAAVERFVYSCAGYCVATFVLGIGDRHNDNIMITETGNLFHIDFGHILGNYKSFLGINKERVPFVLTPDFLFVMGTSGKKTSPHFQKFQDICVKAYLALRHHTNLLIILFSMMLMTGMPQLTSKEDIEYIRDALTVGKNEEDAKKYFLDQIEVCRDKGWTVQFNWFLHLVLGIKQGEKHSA
Sequence of PI3Kδ (p110δ/p85α) Recombinant Human Protein (O00329 whole entry): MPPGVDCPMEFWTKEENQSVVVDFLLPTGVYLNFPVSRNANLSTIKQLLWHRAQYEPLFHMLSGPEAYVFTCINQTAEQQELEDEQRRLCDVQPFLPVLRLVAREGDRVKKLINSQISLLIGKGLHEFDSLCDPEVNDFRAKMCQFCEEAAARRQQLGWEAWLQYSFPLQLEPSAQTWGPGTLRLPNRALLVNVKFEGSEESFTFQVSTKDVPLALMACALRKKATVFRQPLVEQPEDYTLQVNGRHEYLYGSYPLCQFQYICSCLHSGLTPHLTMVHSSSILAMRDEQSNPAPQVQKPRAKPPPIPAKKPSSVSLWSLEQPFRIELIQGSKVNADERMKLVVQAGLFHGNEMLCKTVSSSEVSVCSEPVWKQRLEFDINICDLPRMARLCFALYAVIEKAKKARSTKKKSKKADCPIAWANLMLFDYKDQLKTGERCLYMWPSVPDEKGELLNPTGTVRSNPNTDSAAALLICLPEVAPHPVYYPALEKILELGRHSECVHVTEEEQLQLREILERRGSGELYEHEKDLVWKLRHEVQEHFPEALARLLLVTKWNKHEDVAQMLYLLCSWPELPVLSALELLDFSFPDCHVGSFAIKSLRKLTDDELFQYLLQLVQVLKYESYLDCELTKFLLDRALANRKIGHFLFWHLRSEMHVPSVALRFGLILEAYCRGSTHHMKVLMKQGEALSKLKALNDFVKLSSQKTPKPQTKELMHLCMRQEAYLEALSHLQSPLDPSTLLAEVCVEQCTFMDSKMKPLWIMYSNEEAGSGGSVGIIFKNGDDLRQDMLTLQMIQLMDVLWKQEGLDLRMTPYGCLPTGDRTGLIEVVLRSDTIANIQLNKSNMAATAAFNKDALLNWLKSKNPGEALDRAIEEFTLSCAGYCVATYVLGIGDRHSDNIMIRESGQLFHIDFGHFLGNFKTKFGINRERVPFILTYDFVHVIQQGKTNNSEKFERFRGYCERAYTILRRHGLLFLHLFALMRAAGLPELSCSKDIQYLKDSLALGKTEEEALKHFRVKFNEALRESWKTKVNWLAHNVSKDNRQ
Sequence of PI3Kδ (p110δ/p85α) Recombinant Human Protein (P27986 whole entry partner): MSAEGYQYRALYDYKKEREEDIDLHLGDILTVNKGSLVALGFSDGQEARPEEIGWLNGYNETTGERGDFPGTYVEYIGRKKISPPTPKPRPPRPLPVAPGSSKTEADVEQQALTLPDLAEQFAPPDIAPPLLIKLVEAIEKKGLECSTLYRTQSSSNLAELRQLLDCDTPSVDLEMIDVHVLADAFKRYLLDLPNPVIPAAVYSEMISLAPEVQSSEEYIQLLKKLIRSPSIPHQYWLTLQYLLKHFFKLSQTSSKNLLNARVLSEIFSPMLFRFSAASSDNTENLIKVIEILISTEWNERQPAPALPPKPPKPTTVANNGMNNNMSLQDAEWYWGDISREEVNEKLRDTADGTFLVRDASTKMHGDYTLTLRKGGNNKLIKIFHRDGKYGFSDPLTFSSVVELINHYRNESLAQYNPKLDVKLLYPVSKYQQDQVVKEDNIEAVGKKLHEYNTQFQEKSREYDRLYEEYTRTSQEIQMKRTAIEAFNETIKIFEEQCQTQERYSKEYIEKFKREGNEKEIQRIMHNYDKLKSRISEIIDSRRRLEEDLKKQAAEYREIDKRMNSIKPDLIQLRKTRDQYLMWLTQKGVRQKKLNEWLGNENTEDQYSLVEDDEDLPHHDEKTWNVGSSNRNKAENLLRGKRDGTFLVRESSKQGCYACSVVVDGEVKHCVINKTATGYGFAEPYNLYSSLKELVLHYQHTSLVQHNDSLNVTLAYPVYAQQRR

In the case of `O=C(O)C(F)(F)F.[2H]C([2H])([2H])c1ccc(S(=O)(=O)NC23CCC(CO)(C2)C3)cc1-c1cnc2c(N)nc(C)cn12` [Example 383, 3-(8-Amino-6-methylimidazo[1,2-a]pyrazin-3-yl)-N-(4-(hydroxymethyl)bicyclo[2.1.1]hexan-1-yl)-4-(methyl-d3)benzenesulfonamide trifluoroacetate salt], the IC50 in assay [1] (Homo sapiens), in assay [2] and in assay [3] was less than 0.1 µM in each case.

As to `[2H]C([2H])([2H])c1ccc(S(=O)(=O)NC23CCC(O)(C2)C3)cc1-c1cnc2c(N)nc(C)cn12` [Example 384, 3-(8-Amino-6-methylimidazo[1,2-a]pyrazin-3-yl)-N-(4-hydroxybicyclo[2.1.1]hexan-1-yl)-4-(methyl-d3)benzenesulfonamide], the IC50 in assay [1] (Homo sapiens) was 0.5 to 1 µM; in assay [2] it was less than 0.1 µM; in assay [3], less than 0.1 µM.

Turning to `Cc1cn2c(-c3ccc(Cl)c(S(=O)(=O)N[C@H]4CC[C@](C)(O)CC4)c3)cnc2c(N)n1` [Example 385, 5-(8-amino-6-methylimidazo[1,2-a]pyrazin-3-yl)-2-chloro-N-((1r,4r)-4-hydroxy-4-methylcyclohexyl)benzenesulfonamide], the IC50 in assay [1] was 0.1 to 0.5 µM; in assay [2], less than 0.1 µM; in assay [3] it was less than 0.1 µM.

As to `O=C(O)C(F)(F)F.[2H]C([2H])([2H])c1ccc(S(=O)(=O)NC23CCC(C#N)(C2)C3)cc1-c1cnc2c(N)nc(C)nn12` [Example 386, 3-(4-Amino-2-methylimidazo[2,1-f][1,2,4]triazin-7-yl)-N-(4-cyanobicyclo[2.1.1]hexan-1-yl)-4-(methyl-d3)benzenesulfonamide trifluoroacetate salt], the IC50 is less than 0.1 µM in assay [1] (Homo sapiens), less than 0.1 µM in assay [2] and 0.1 to 0.5 µM in assay [3].

With `Cc1nc(N)c2ncc(-c3ccc(F)c(S(=O)(=O)NC45CCC(C#N)(C4)C5)c3)n2n1` [Example 387, 5-(4-Amino-2-methylimidazo[1,2-f][1,2,4]triazin-7-yl)-N-(4-cyanobicyclo[2.1.1]hexan-1-yl)-2-fluorobenzenesulfonamide trifluoroacetate salt], the results for the IC50 in assay [1], in assay [2] and in assay [3] were less than 0.1 µM, less than 0.1 µM and 0.1 to 0.5 µM, respectively.

On to `Cc1nc(N)c2ncc(-c3ccc(F)c(S(=O)(=O)NC45CC(C#N)(C4)C5)c3)n2n1` [Example 388, 5-(4-Amino-2-methylimidazo[1,2-f][1,2,4]triazin-7-yl)-N-(3-cyanobicyclo[1.1.1]pentan-1-yl)-2-fluorobenzenesulfonamide trifluoroacetate salt], for which the IC50 in assay [1] was more than 1 µM; in assay [2], less than 0.1 µM; in assay [3] it was 0.1 to 0.5 µM.

On to `Cc1nc(N)c2ncc(-c3cc(S(=O)(=O)N[C@H]4CC[C@H](CC#N)OC4)c(Cl)cc3C)n2n1` [Example 389, 5-(4-amino-2-methylimidazo[2,1-f][1,2,4]triazin-7-yl)-2-chloro-N-((3S,6R)-6-(cyanomethyl)tetrahydro-2H-pyran-3-yl)-4-methylbenzenesulfonamide], for which the IC50 in assay [1] (Homo sapiens), in assay [2] and in assay [3] was less than 0.1 µM in each case.

In the case of `O=C(O)C(F)(F)F.[2H]C([2H])([2H])c1ccc(S(=O)(=O)NC23CCC(CO)(C2)C3)cc1-c1cnc2c(N)nc(C(F)(F)F)cn12` [Example 390, 3-(8-Amino-6-(trifluoromethyl)imidazo[1,2-a]pyrazin-3-yl)-N-(4-(hydroxymethyl)bicyclo[2.1.1]hexan-1-yl)-4-(methyl-d3)benzenesulfonamide trifluoroacetate salt], the results for the IC50 in assay [1] (Homo sapiens), in assay [2] and in assay [3] were 0.1 to 0.5 µM, less than 0.1 µM and 0.1 to 0.5 µM, respectively.

Take `O=C(O)C(F)(F)F.[2H]C([2H])([2H])c1ccc(S(=O)(=O)NC23CC(CO)(C2)C3)cc1-c1cnc2c(N)nc(C(F)(F)F)cn12` [Example 391, 3-(8-Amino-6-(trifluoromethyl)imidazo[1,2-a]pyrazin-3-yl)-N-(3-(hydroxymethyl)bicyclo[1.1.1]pentan-1-yl)-4-(methyl-d3)benzenesulfonamide trifluoroacetate salt]: the IC50 in assay [1] (Homo sapiens) was less than 0.1 µM; in assay [2] it was less than 0.1 µM; in assay [3], 0.1 to 0.5 µM.

With `N#CC12CCC(NS(=O)(=O)c3cc(-c4cnc5c(N)nc(C(F)(F)F)cn45)ccc3Cl)(C1)C2` [Example 392, 5-(8-Amino-6-(trifluoromethyl)imidazo[1,2-a]pyrazin-3-yl)-2-chloro-N-(4-cyanobicyclo[2.1.1]hexan-1-yl)benzenesulfonamide trifluoroacetate salt], the figures for the IC50 in assay [1] (Homo sapiens), in assay [2] and in assay [3] were 0.1 to 0.5 µM, less than 0.1 µM and less than 0.1 µM, respectively.

In the case of `Nc1nc(C(F)(F)F)cn2c(-c3cc(S(=O)(=O)NC45CCC(CO)(C4)C5)ccc3Cl)cnc12` [Example 393, 3-(8-Amino-6-(trifluoromethyl)imidazo[1,2-a]pyrazin-3-yl)-4-chloro-N-(4-(hydroxymethyl)bicyclo[2.1.1]hexan-1-yl)benzenesulfonamide], the results for the IC50 in assay [1] (Homo sapiens), in assay [2] and in assay [3] were 0.1 to 0.5 µM, less than 0.1 µM and 0.5 to 2 µM, respectively.

For `Nc1nc(C(F)(F)F)cn2c(-c3cccc(S(=O)(=O)NC45CCC(CO)(C4)C5)c3)cnc12` [Example 394, 3-(8-Amino-6-(trifluoromethyl)imidazo[1,2-a]pyrazin-3-yl)-N-(4-(hydroxymethyl)bicyclo[2.1.1]hexan-1-yl)benzenesulfonamide trifluoroacetate salt], the IC50 in assay [1] (Homo sapiens) is 0.1 to 0.5 µM; in assay [2], less than 0.1 µM; in assay [3], 0.1 to 0.5 µM.

Take `N#CC12CCC(NS(=O)(=O)c3cccc(-c4cnc5c(N)nc(C(F)(F)F)cn45)c3)(C1)C2` [Example 395, 3-(8-Amino-6-(trifluoromethyl)imidazo[1,2-a]pyrazin-3-yl)-N-(4-cyanobicyclo[2.1.1]hexan-1-yl)benzenesulfonamide trifluoroacetate salt]: the figures for the IC50 in assay [1] (Homo sapiens), in assay [2] and in assay [3] were 0.1 to 0.5 µM, less than 0.1 µM and 0.1 to 0.5 µM, respectively.

Consider `N#CC12CCC(NS(=O)(=O)c3cc(-c4cnc5c(N)nc(C(F)(F)F)cn45)ccc3F)(C1)C2` [Example 396, 5-(8-Amino-6-(trifluoromethyl)imidazo[1,2-a]pyrazin-3-yl)-N-(4-cyanobicyclo[2.1.1]hexan-1-yl)-2-fluorobenzenesulfonamide trifluoroacetate salt], for which the IC50 in assay [1] (Homo sapiens) is 0.5 to 1 µM; in assay [2], less than 0.1 µM; in assay [3], 0.1 to 0.5 µM.

For the compound `Cc1c(F)cc(S(=O)(=O)NC23CCC(C#N)(C2)C3)cc1-c1cnc2c(N)nc(C(F)(F)F)cn12` [Example 397, 3-(8-Amino-6-(trifluoromethyl)imidazo[1,2-a]pyrazin-3-yl)-N-(4-cyanobicyclo[2.1.1]hexan-1-yl)-5-fluoro-4-methylbenzenesulfonamide trifluoroacetate salt], the IC50 was less than 0.1 µM in assay [1] (Homo sapiens), less than 0.1 µM in assay [2] and 0.1 to 0.5 µM in assay [3].

As for `Nc1nc(C(F)(F)F)cn2c(-c3ccc(F)c(S(=O)(=O)NC45CCC(CO)(C4)C5)c3)cnc12` [Example 398, 5-(8-Amino-6-(trifluoromethyl)imidazo[1,2-a]pyrazin-3-yl)-2-fluoro-N-(4-(hydroxymethyl)bicyclo[2.1.1]hexan-1-yl)benzenesulfonamide trifluoroacetate salt], the IC50 in assay [1] (Homo sapiens) was 0.5 to 1 µM; in assay [2], less than 0.1 µM; in assay [3] it was 0.1 to 0.5 µM.

For orientation: IC50 means the concentration that inhibits the measured activity by half.
